Data as given in patent publication US7504420B2, “Compounds which inhibit beta-secretase activity and methods of use” (CoMentis, Inc., priority 2005, dated 2009).

How the values were obtained:
[1] = target: memapsin 2 (Homo sapiens, UniProt P56817); experiment: Inhibition of memapsin 2 catalytic activity (Ki); assay type: biochemical; conditions: memapsin 2, pH 4, 37° C.; read-out: M2K
In short: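 Run at 37 °C and pH 4: compound and enzyme pre-incubated 20 min before FS-2 fluorogenic substrate started hydrolysis,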

[2] = system: Aβ production in Chinese hamster ovary cells that over-express human APP695 with the London and Swedish mutations; experiment: Cellular Aβ IC50 determination (Aβ40 sandwich ELISA); conditions: Cricetulus griseus, CHO, 24 h, read-out: Cell, Aβ40, CHO cells over-expressing human APP695 (London and Swedish mutations), 24 h
[3] = target: cathepsin D (Homo sapiens, UniProt P07339); experiment: Inhibition of cathepsin D catalytic activity (Ki); assay type: biochemical; conditions: pH 4.0, 37° C., read-out: CDK
Method: A substrate peptide NH3-ELDLAVEFWHDR-CO2 (SEQ ID NO.:1) (used for inhibition assay of memapsin 2, memapsin 1, and cathepsin D) was dissolved at 2 mg/ml in DMSO and diluted 1:100 in 0.1 M sodium acetate, pH 4.0 just prior to assay. Inhibitor dissolved in DMSO was diluted into 0.1 M sodium acetate, pH 4.0 (1:100 dilution). A […] aliquot of the inhibitor solution in pH 4 buffer was combined with […] of 0.1 M sodium acetate containing 100-200 nM of memapsin 1, memapsin 2, or cathepsin D. Following a pre-incubation at 37° C., the proteolytic assay was initated by addition of […] of the substrate diluted into pH 4 buffer, and incubation continued at 37° C. Aliquots were removed at time intervals, and combined with an equal volume of MALDI-TOF matrix (α-hydroxycinnamic acid in acetone, 20 mg/ml) and immediately spotted in duplicate onto a stainless-steel MALDI sample plate. MALDI-TOF mass spectrometry was performed on a PE Biosystems Voyager DE instrument at the Molecular Biology Resource Center on campus. The instrument was operated at 25,000 accelerating volts in positive mode with a 150 ns delay. Ions with a mass-to-charge ratio (m/z) were detected in the range of 650-2000 atomic mass units. Data were analyzed by the Voyager Data Explorer module to obtain ion intensity data for mass species of substrates and corresponding products in a given mixture. Relative product formation was calculated as the ratio of signal intensity of the product to the sum of signal intensities of both product and the corresponding substrate. Relative product formed per unit time was obtained from non-linear regression analysis of the data representing the initial 15% formation of product using the model: 1−e^−kT, where k was the relative hydrolytic rate constant and T was time in seconds. Alternatively, relative hydrolytic rates were determined using a fluorogenic cleavage assay (Ermolieff, J. et al., Biochemistry, 39: 12450-12456 (2000)). Initial rates from either method were expressed relative to uninhibited controls and the inhibition constant Ki was determined by a non-linear fit to a tight-binding model of competitive inhibition (Bieth, J., Bayer-Symposium V: Proteinase Inhibitors, pp 463-469, Spinger-Varlag, Berlin (1994)). Results are shown in Table 1 above (M2K, CDK, and M1K columns represent, respectively, the K1 values obtained for memapsin 2, cathepsin D and memapsin 1).

memapsin 2, sequence (P56817 46-501): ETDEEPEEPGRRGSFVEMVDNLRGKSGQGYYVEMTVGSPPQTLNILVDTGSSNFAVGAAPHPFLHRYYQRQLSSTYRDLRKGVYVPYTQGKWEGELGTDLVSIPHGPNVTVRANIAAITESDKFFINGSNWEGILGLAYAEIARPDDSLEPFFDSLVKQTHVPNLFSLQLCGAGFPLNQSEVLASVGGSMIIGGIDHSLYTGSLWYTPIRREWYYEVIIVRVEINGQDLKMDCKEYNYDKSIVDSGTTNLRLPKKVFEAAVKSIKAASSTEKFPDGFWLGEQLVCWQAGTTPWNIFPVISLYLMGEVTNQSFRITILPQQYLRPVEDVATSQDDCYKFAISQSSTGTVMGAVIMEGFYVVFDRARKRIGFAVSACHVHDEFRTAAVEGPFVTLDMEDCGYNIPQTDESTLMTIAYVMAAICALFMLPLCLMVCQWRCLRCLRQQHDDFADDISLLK
cathepsin D, sequence (P07339 65-412, species assumed): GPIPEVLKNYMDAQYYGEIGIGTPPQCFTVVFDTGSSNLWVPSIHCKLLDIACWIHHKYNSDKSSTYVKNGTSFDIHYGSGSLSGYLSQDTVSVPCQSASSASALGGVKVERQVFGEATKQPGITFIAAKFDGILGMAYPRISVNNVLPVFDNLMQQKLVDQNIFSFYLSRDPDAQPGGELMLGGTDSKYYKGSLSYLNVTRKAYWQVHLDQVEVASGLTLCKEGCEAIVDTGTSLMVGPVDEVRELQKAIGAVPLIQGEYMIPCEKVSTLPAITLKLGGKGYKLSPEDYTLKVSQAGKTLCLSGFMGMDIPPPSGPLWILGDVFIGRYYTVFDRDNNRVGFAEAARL

SMILES | Ki [1] [nM] | IC50 [2] [nM] | Ki [3] [nM]
CC(NC(=O)c1cc(C(=O)NC(Cc2ccccc2)C(O)CNCC2CCCN(C)C2)cc(N(C)S(C)(=O)=O)c1)c1ccccc1 (stereo not drawn) [N1-(3-hydroxy-4-((1-methylpiperidin-3-yl)methylamino)-1-phenylbutan-2-yl)-5-(N-methylmethylsulfonamido)-N3-(1-phenylethyl)isophthalamide] | > 501 | > 5000 | > 501
Cc1cc(CNCC(O)C(Cc2ccccc2)NC(=O)c2cc(C(=O)NC(C)c3ccccc3)cc(N(C)S(C)(=O)=O)c2)on1 (stereo not drawn) [N1-(3-hydroxy-4-((3-methylisoxazol-5-yl)methylamino)-1-phenylbutan-2-yl)-5-(N-methylmethylsulfonamido)-N3-(1-phenylethyl)isophthalamide] | < 300 | < 1000 | < 300
Cc1cc(CNCC(O)C(Cc2ccccc2)NC(=O)c2cccc(C(=O)N(C)Cc3nc(C)cs3)c2)on1 (stereo not drawn) [N1-(3-hydroxy-4-((3-methylisoxazol-5-yl)methylamino)-1-phenylbutan-2-yl)-N3-methyl-N3-((4-methylthiazol-2-yl)methyl)isophthalamide] | < 300 | > 5000 | > 501
CC(C)Oc1cncc(CNCC(O)C(Cc2ccccc2)NC(=O)c2cc(C(=O)NC(C)c3ccccc3)cc(N(C)S(C)(=O)=O)c2)c1 (stereo not drawn) [N1-(3-hydroxy-4-((5-isopropoxypyridin-3-yl)methylamino)-1-phenylbutan-2-yl)-5-(N-methylmethylsulfonamido)-N3-(1-phenylethyl)isophthalamide] | < 300 | < 1000 | < 300
CC(C)c1cncc(CNCC(O)C(Cc2ccccc2)NC(=O)c2cc(C(=O)NC(C)c3ccccc3)cc(N(C)S(C)(=O)=O)c2)c1 (stereo not drawn) [N1-(3-hydroxy-4-((5-isopropylpyridin-3-yl)methylamino)-1-phenylbutan-2-yl)-5-(N-methylmethylsulfonamido)-N3-(1-phenylethyl)isophthalamide] | < 300 | < 1000 | < 300
Cc1cc(CNCC(O)C(Cc2ccccc2)NC(=O)c2cc(C(=O)NC(C)c3ccccc3)cc(N(C)S(C)(=O)=O)c2)no1 (stereo not drawn) [N1-(3-hydroxy-4-((5-methylisoxazol-3-yl)methylamino)-1-phenylbutan-2-yl)-5-(N-methylmethylsulfonamido)-N3-(1-phenylethyl)isophthalamide] | < 300 | < 1000 | < 300
Cc1csc(CN(C)C(=O)c2cccc(C(=O)NC(Cc3ccccc3)C(O)CNCc3cc(C)on3)c2)n1 (stereo not drawn) [N1-(3-hydroxy-4-((5-methylisoxazol-3-yl)methylamino)-1-phenylbutan-2-yl)-N3-methyl-N3-((4-methylthiazol-2-yl)methyl)isophthalamide] | 301 to 500 | 1000 to 5000 | 301 to 500
Cc1cncc(CNCC(O)C(Cc2ccccc2)NC(=O)c2cccc(C(=O)N(C)Cc3nc(C)cs3)c2)c1 (stereo not drawn) [N1-(3-hydroxy-4-((5-methylpyridin-3-yl)methylamino)-1-phenylbutan-2-yl)-N3-methyl-N3-((4-methylthiazol-2-yl)methyl)isophthalamide] | < 300 | < 1000 | < 300
CC(NC(=O)c1cc(C(=O)NC(Cc2ccccc2)C(O)CNC(C)C2CCCCC2)cc(N(C)S(C)(=O)=O)c1)c1ccccc1 (stereo not drawn) [N1-(4-(1-cyclohexylethylamino)-3-hydroxy-1-phenylbutan-2-yl)-5-(N-methylmethylsulfonamido)-N3-(1-phenylethyl)isophthalamide] | < 300 | < 1000 | < 300
COc1cccc(CNCC(O)C(Cc2ccccc2)NC(=O)c2cc(C(=O)NC(C)c3ccccc3)cc(N(C)S(C)(=O)=O)c2)c1F (stereo not drawn) [N1-(4-(2-fluoro-3-methoxybenzylamino)-3-hydroxy-1-phenylbutan-2-yl)-5-(N-methylmethylsulfonamido)-N3-(1-phenylethyl)isophthalamide] | < 300 | < 1000 | < 300
COc1cccc(F)c1CNCC(O)C(Cc1ccccc1)NC(=O)c1cc(C(=O)NC(C)c2ccccc2)cc(N(C)S(C)(=O)=O)c1 (stereo not drawn) [N1-(4-(2-fluoro-6-methoxybenzylamino)-3-hydroxy-1-phenylbutan-2-yl)-5-(N-methylmethylsulfonamido)-N3-(1-phenylethyl)isophthalamide] | < 300 | < 1000 | < 300

Second part, the molecule after the results:

Ki [1] [nM] | IC50 [2] [nM] | Ki [3] [nM] | SMILES
< 300 | < 1000 | > 501 | CC(NC(=O)c1cc(C(=O)NC(Cc2ccccc2)C(O)CNCc2cccc(CN(C)C)c2)cc(N(C)S(C)(=O)=O)c1)c1ccccc1 (stereo not drawn) [N1-(4-(3-((dimethylamino)methyl)benzylamino)-3-hydroxy-1-phenylbutan-2-yl)-5-(N-methylmethylsulfonamido)-N3-(1-phenylethyl)isophthalamide]
< 300 | < 1000 | < 300 | CC(NC(=O)c1cc(C(=O)NC(Cc2ccccc2)C(O)CNCc2cccc(OC(F)F)c2)cc(N(C)S(C)(=O)=O)c1)c1ccccc1 (stereo not drawn) [N1-(4-(3-(difluoromethoxy)benzylamino)-3-hydroxy-1-phenylbutan-2-yl)-5-(N-methylmethylsulfonamido)-N3-(1-phenylethyl)isophthalamide]
< 300 | < 1000 | > 501 | CC(NC(=O)c1cc(C(=O)NC(Cc2ccccc2)C(O)CNCc2cccc(N(C)C)c2)cc(N(C)S(C)(=O)=O)c1)c1ccccc1 (stereo not drawn) [N1-(4-(3-(dimethylamino)benzylamino)-3-hydroxy-1-phenylbutan-2-yl)-5-(N-methylmethylsulfonamido)-N3-(1-phenylethyl)isophthalamide]
< 300 | < 1000 | < 300 | CC(NC(=O)c1cc(C(=O)NC(Cc2ccccc2)C(O)CNCc2cccc(CF)c2)cc(N(C)S(C)(=O)=O)c1)c1ccccc1 (stereo not drawn) [N1-(4-(3-(fluoromethyl)benzylamino)-3-hydroxy-1-phenylbutan-2-yl)-5-(N-methylmethylsulfonamido)-N3-(1-phenylethyl)isophthalamide]
< 300 | < 1000 | < 300 | Cc1csc(CN(C)C(=O)c2cccc(C(=O)NC(Cc3ccccc3)C(O)CNCc3cccc(CF)c3)c2)n1 (stereo not drawn) [N1-(4-(3-(fluoromethyl)benzylamino)-3-hydroxy-1-phenylbutan-2-yl)-N3-methyl-N3-((4-methylthiazol-2-yl)methyl)isophthalamide]
< 300 | < 1000 | < 300 | CCc1cccc(CNCC(O)C(Cc2ccccc2)NC(=O)c2cc(C(=O)NC(C)c3ccccc3)cc(N(C)S(C)(=O)=O)c2)c1 (stereo not drawn) [N1-(4-(3-ethylbenzylamino)-3-hydroxy-1-phenylbutan-2-yl)-5-(N-methylmethylsulfonamido)-N3-(1-phenylethyl)isophthalamide]
< 300 | < 1000 | < 300 | CCc1cccc(CNCC(O)C(Cc2ccccc2)NC(=O)c2cccc(C(=O)N(C)Cc3nc(C)cs3)c2)c1 (stereo not drawn) [N1-(4-(3-ethylbenzylamino)-3-hydroxy-1-phenylbutan-2-yl)-N3-methyl-N3-((4-methylthiazol-2-yl)methyl)isophthalamide]
< 300 | 1000 to 5000 | < 300 | CC(NC(=O)c1cc(C(=O)NC(Cc2ccccc2)C(O)CNCc2nc3ccccc3[nH]2)cc(N(C)S(C)(=O)=O)c1)c1ccccc1 (stereo not drawn) [N1-(4-((1H-benzo[d]imidazol-2-yl)methylamino)-3-hydroxy-1-phenylbutan-2-yl)-5-(N-methylmethylsulfonamido)-N3-(1-phenylethyl)isophthalamide]
